Earlier results, collected in patent publication US7399860B2, “Manufacture of polyglutamate-therapeutic agent conjugates” (Cell Therapeutics Inc., priority 1999, dated 2008).

Tested on: tumor
Settings: tumor-bearing hosts; U.S. Pat. No. 5,977,163; Li et al. 1998

Which “efficacy compared with the unconjugated form of the drug” value does the source give for polyglutamic acid-paclitaxel conjugate here?
Its value is “increased efficacy”.
